How the values were obtained:
Test in all cases: relative viability (nuclei count vs DMSO), 5 days (fraction); higher = more cells survive
5-Fluorouracil + OSI-027 = compound: O=c1[nH]cc(F)c(=O)[nH]1 [5-Fluorouracil] + COc1cccc2cc(-c3nc([C@H]4CC[C@H](C(=O)O)CC4)n4ncnc(N)c34)[nH]c12 [OSI-027] (partner 0.5 µM)
In short: (§1)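 Lung cancer cell lines in 1536-well plates got either a single drug or a fixed anchor-drug dose together with five library-drug doses (not always all listed) in √10 steps, by pin tool, on the day after seeding. Nuclei were counted after 5 days, and relative viability is the treated-to-vehicle ratio of nuclei counts. Values are medians of duplicate plates.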

Sulindac + OSI-027 = compound: CC1=C(CC(=O)O)c2cc(F)ccc2/C1=C\c1ccc([S+](C)[O-])cc1 [Sulindac] + COc1cccc2cc(-c3nc([C@H]4CC[C@H](C(=O)O)CC4)n4ncnc(N)c34)[nH]c12 [OSI-027] (partner 0.5 µM)
In short: as §1

Staurosporine + AZD7762 = compound: CN[C@@H]1C[C@H]2O[C@@](C)([C@@H]1OC)n1c3ccccc3c3c4c(c5c6ccccc6n2c5c31)C(=O)NC4 [Staurosporine] + NC(=O)Nc1cc(-c2cccc(F)c2)sc1C(=O)N[C@H]1CCCNC1 [AZD7762] (partner 0.2 µM)
In short: as §1

[1] = compound: O=c1[nH]cc(F)c(=O)[nH]1 [5-Fluorouracil] + N=C(N)NC(=N)NCCc1ccccc1 [Phenformin] (partner 250 µM)
In short: as §1

Cell Line	relative viability (5-Fluorouracil + OSI-027; first compound 0.02 µM)	relative viability (5-Fluorouracil + OSI-027; first compound 0.2 µM)	relative viability (5-Fluorouracil + OSI-027; first compound 0.6325 µM)	relative viability (5-Fluorouracil + OSI-027; first compound 2 µM)	relative viability (Sulindac + OSI-027; first compound 0.08 µM)	relative viability (Sulindac + OSI-027; first compound 0.253 µM)	relative viability (Sulindac + OSI-027; first compound 2.53 µM)	relative viability (Sulindac + OSI-027; first compound 8 µM)	relative viability (Staurosporine + AZD7762; first compound 0.005 µM)	relative viability (Staurosporine + AZD7762; first compound 0.05 µM)	relative viability (Staurosporine + AZD7762; first compound 0.1581 µM)	relative viability (Staurosporine + AZD7762; first compound 0.5 µM)	relative viability ([1]; first compound 0.2 µM)	relative viability ([1]; first compound 0.6325 µM)	relative viability ([1]; first compound 2 µM)	relative viability (Sulindac + OSI-027; first compound 0.8 µM)	relative viability (Staurosporine + AZD7762; first compound 0.01581 µM)	relative viability ([1]; first compound 0.02 µM)
HCC-44	0.664	0.479	0.483	0.31	0.463	0.592	0.519	0.734	0.999	0.911	0.565	0.307	0.262	0.154	0.182	–	–	–
HCC-78	0.618	0.369	0.335	0.306	0.385	0.395	0.329	0.381	0.674	0.438	0.375	0.326	0.706	0.558	0.312	0.399	0.463	0.697
COR-L23	0.794	0.539	0.323	0.245	1.09	0.777	0.743	0.94	–	–	–	–	0.427	0.278	0.228	0.609	–	0.4
NCI-H2009	0.618	0.674	0.478	0.379	0.732	0.77	0.626	0.731	–	–	–	–	0.548	0.438	0.401	0.582	–	0.551
NCI-H3122	1.04	0.871	0.349	–	1.07	1.02	0.937	1.13	–	0.678	–	0.192	0.349	0.21	0.174	0.864	–	0.366
NCI-H2228	0.404	0.55	0.332	0.329	0.794	0.687	0.502	0.56	–	–	–	–	0.249	0.259	0.249	0.533	–	0.408
NCI-H1944	0.48	0.423	0.296	0.188	0.424	0.43	0.421	0.412	0.349	0.275	0.177	0.192	0.208	0.157	0.135	0.353	0.25	0.195
NCI-H1648	0.246	0.269	0.264	0.245	0.25	0.242	0.268	0.265	0.611	0.373	0.412	0.388	–	–	–	0.298	0.409	–
NCI-H358	0.819	0.888	0.508	0.289	0.941	0.891	0.727	0.891	0.339	0.253	0.195	0.172	0.383	0.313	0.262	0.657	0.378	0.351
NCI-H1755	0.703	0.702	0.389	0.264	0.776	0.64	0.733	0.763	0.318	0.214	0.224	0.224	0.598	0.364	0.256	0.661	0.228	0.667
A-427	0.461	0.557	0.359	0.259	0.495	0.474	0.459	0.584	0.545	0.246	0.169	0.142	0.461	0.279	0.212	0.443	0.305	0.29
PC-14	0.876	0.976	0.747	0.296	1.3	1.2	0.886	1.09	0.302	0.0421	0.0892	0.0415	0.682	0.558	0.585	–	0.0766	0.572
LCLC-97TM1	0.392	0.531	0.557	0.379	0.629	0.626	0.426	0.589	0.225	0.169	0.176	0.141	0.472	0.443	0.407	0.294	0.121	0.386
BEN	0.303	0.312	0.315	0.326	0.312	0.271	0.321	0.301	0.946	0.761	0.316	0.294	0.257	0.285	0.251	0.29	0.776	0.255
NCI-H661	0.674	–	0.661	0.691	0.735	0.838	0.711	0.797	–	–	–	–	–	0.284	0.287	0.622	–	0.274
NCI-H1563	0.679	0.791	0.7	0.696	0.754	0.784	0.703	0.784	–	–	–	–	0.611	0.641	0.646	0.762	–	0.713
SW 1573	0.548	0.73	0.633	0.327	0.722	0.676	0.699	0.578	–	–	–	–	0.42	0.385	0.246	–	–	0.475
SK-LU-1	0.374	0.309	0.342	0.321	0.305	0.343	0.316	0.351	–	–	–	–	0.651	0.501	0.485	0.295	–	0.529
SK-MES-1	0.577	0.367	0.253	0.196	0.781	0.823	0.609	0.631	–	–	–	–	0.4	0.331	0.242	0.55	–	0.748
NCI-H1650	0.515	0.496	0.383	0.349	0.452	0.567	0.45	0.734	–	–	–	–	0.444	0.273	0.279	–	–	0.396
NCI-H520	0.191	0.294	0.252	0.226	0.266	0.266	0.232	0.307	–	–	–	–	0.677	0.46	0.442	–	–	0.525

From the supplement of paper PMC10307832
